Earlier results, collected in US20170101678A1, “METHOD FOR SCREENING RISK OF DRUG-INDUCED TOXICITY” (RESEARCH CENTER FOR BIOTECHNOLOGY AND MEDICINE POLICY, priority 2014, published 2017).
Like-named read-outs stand apart in the source and are kept apart here.

Conditions: patients treated with INH

In the case of NNC(=O)c1ccncc1 [INH, Isoniazid], the “patients developing hepatitis or increased liver readings” value (CYP2E1 1A/1A genotype) is given as 39% and the “patients developing hepatitis or increased liver readings” value (CYP2E1 1A/1B genotype) is given as 15%.
